Entries after “also recorded” stand apart in the source; their conditions may differ. Like-named read-outs stand apart in the source and are kept apart here.
Assays:
[1] = cited from earlier work
[2] = test system: liver punch hole injuries in pigs; conditions: cited from earlier work; for inflammatory cell infiltration due to the SAP: short-term study
[3] = test system: oozing wounds in the walls of the stomach and/or duodenum of pigs; conditions: endoscopic administration, no control group; cited from earlier work
DSS-induced colitis mice = assay: Efficacy in DSS-induced colitis (DAI, colon weight/length, MPO, histology, immune cells); format: in vivo
Text: An additional benefit of this nanocomposite system is that it can be dried and then reconstituted in vivo or under in vivo-like conditions without substantial alteration of its properties. The dried nanocomposite offers the advantage of a long-duration storage, but, perhaps more importantly, the dried nanocomposite powder can be encapsulated in various types of capsules known in the art for a controlled and localized delivery in precise part of the GIT with systems differentiated in the basis of GIT transit times, pH changes, bacterial enzymes, mucoadhesion, nanotechnologies and disease-associated triggers. One such capsule, designed for release of hydrated RADA16 hydrogel doped with a macromolecular dye, fluorescein isothiocyanate—dextran 4 kDa (FD4), mostly in the large intestine, has been described by Eleftheriadis et al. (Pharm. Development Tech. 25(4): 1-23 (2020)). That reference discloses a pH sensitive hydroxypropyl methylcellulose-phthalate (HPMCP)-based 3D-printed capsule. Other encapsulation materials suited to the present invention include poly(meth) acrylate polymers and members of the Eudragit family (Chu, J. N. and Traverso, G., Foundations of gastrointestinal-based drug delivery and future developments, Nature Reviews: Gastroenterology & Hepatology (2021) doi: 10.1038/s41575-021-00539-w). The present invention is based, at least, on the following findings/parameters: • 1. A nanocomposite based on the physical mixture of a preformed nanosystem (namely nanoemulsion, NE) loaded with a drug intended for the treatment of IBD, and a preformed self-assembling-peptide ([…])-based hydrogel (PURASTAT) was created at different concentrations of SAP. • 2. The creation of nanocomposites characterized by two different concentrations, led to the development of systems with different structural properties, leading to differences in the drug-release behaviours. • 3. […] The use of nanocomposite to test the therapeutic efficacy of the drug on an IBD-mouse model brought results based on different technique, detailed herein. • 5. Certain disease factors were improved by administration of PS hydrogel/NE mixture alone, even in the absence of any active ingredients. Disease activity index (DAI) score, used to evaluate the DSS-induced colitis. […] For each parameter a score from 0 to 4 was attributed and afterwards divided by three, resulting in the total DAI score ranging from 0 (unaffected) to 4 (severe colitis) (Gonçalves, F. da C., Schneider, N., H. M.-A. S. & 2013, U. Characterization of Acute Murine Dextran Sodium Sulfate (DSS) Colitis: Severity of Inflammation is Dependent on the DSS Molecular Weight and Concentration. Acta Sci. Vet. 41, 1-9 (2013)). Colon length and weight, which is often reduced in cases of inflammation (Biton, I. E. et al. Assessing Mucosal Inflammation in a DSS-Induced Colitis Mouse Model by MR Colonography. Tomogr. (Ann Arbor, Mich.) 4, 4-13 (2018)). The activity of the enzyme myeloperoxidase (MPO), which is a direct indicator of neutrophils infiltration into the colonic mucosa, and thus an important marker of inflammation (Hansberry, D. R., Shah, K., Agarwal, P. & Agarwal, N. Fecal Myeloperoxidase as a Biomarker for Inflammatory Bowel Disease. Cureus 9, (2017)). Histomorphologic evaluation by HPS stain (hematoxylin phloxine saffron stain), similar to H&E. HPS can differentiate between the most common connective tissue (collagen) and muscle and cytoplasm by staining the former yellow and the latter two pink, unlike an H&E stain, which stains all three pink. Immunohistochemistry for the detection of CD45 positive cells.
Efficacy of drug-loaded nanocomposites compared to a variety of controls was tested using mice of the same strain used in Example 5. Based on the results from the Stage 1 in vivo studies already described, all mice (except for the G1 healthy control group) were given 3% v/v DSS in drinking water for 4 days. After 4 days all mice were given normal drinking water (i.e., no DSS). […]

Ac-RADARADARADARADA-CONH2 [RADA16]
storage modulus G′ ([1]; 2.5% in water): about 350 Pa | inflammatory cell infiltration due to the SAP [2]: absence

IEIKIEIKIEIKI [IEIK13]
hemostasis [3]: hemostasis was achieved in both heparinized and non-heparinized animals | storage modulus G′ ([1]; 1% in water): ~700 Pa | hemostasis ([2]; compared to RADA16): statistically significant improvement | inflammatory cell infiltration due to the SAP [2]: absence

C[C@@H]1CCN(C(=O)CC#N)C[C@@H]1N(C)c1ncnc2[nH]ccc12 [TFC, Tofacitinib]
Myeloperoxidase (MPO) activity in colonic tissue (DSS-induced colitis mice; indicator of neutrophil infiltration): slight improvement | Th2 or Treg populations (DSS-induced colitis mice; mouse, in vivo): did not affect | infiltration of lymphocytes / CD45+ cells (DSS-induced colitis mice; mouse, in vivo): reduced infiltration of lymphocytes | proportion of Th1 and Th17 proinflammatory populations (DSS-induced colitis mice; mouse, in vivo): significantly reduced | total amount of T cells (CD3+) (DSS-induced colitis mice; mouse, in vivo): strongly reduced | colon weight/colon length ratio (g/cm) (DSS-induced colitis mice; sacrifice at day 10, relative to G2 untreated IBD mice): statistically significant improvement; also recorded: significantly prevented | epithelium and muscularis structure / architecture (histology) (DSS-induced colitis mice; with respect to G2): considerable amelioration

KLDLKLDLKLDL [KLD12]
storage modulus G′ ([1]; 1.5% in water): about 350 Pa

Source: patent US20230381185A1, “NOVEL FORMULATIONS FOR ORAL ADMINISTRATION OF THERAPEUTIC AGENTS TO THE GASTROINTESTINAL TRACT” (3-D Matrix, Ltd., priority 2022, published 2023)
